Test system: KRAS patient-derived spheroids with HUVEC/MSC, viability
Test: Anticancer human tumor 323965-272-R-J2-PDC patient-derived pancreatic carcinoma cell line growth inhibition [KRAS2]
Settings: for IC50: curve of first compound; for viability, T/C: stronger effect = lower value
How it was run: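 Combination screen of spheroid viability in tumor-cell co-cultures with endothelial (HUVEC) and mesenchymal stem cell stroma. Each agent was tested in half-log dilutions, topping at clinical Cmax or at 10 microM without a known Cmax.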

[1] = second compound 0.1 µM, first compound 0.0316 µM
[2] = second compound 0.1 µM, first compound 0.1 µM
[3] = second compound 0.1 µM, first compound 0.316 µM
[4] = second compound 0.1 µM, first compound 1 µM
[5] = second compound 0.1 µM, first compound 3.16 µM
[6] = second compound 0.1 µM, first compound 10 µM
[7] = second compound 0.316 µM, first compound 0.0316 µM
[8] = second compound 0.316 µM, first compound 0.1 µM
[9] = second compound 0.316 µM, first compound 0.316 µM
[10] = second compound 0.316 µM, first compound 1 µM
[11] = second compound 0.316 µM, first compound 3.16 µM
[12] = second compound 0.316 µM, first compound 10 µM
[13] = second compound 1 µM, first compound 0.0316 µM
[14] = second compound 1 µM, first compound 0.1 µM
[15] = second compound 1 µM, first compound 0.316 µM
[16] = second compound 1 µM, first compound 1 µM
[17] = second compound 1 µM, first compound 3.16 µM
[18] = second compound 1 µM, first compound 10 µM
[19] = second compound 3.16 µM, first compound 0.0316 µM
[20] = second compound 3.16 µM, first compound 0.1 µM
[21] = second compound 3.16 µM, first compound 0.316 µM
[22] = second compound 3.16 µM, first compound 1 µM
[23] = second compound 3.16 µM, first compound 3.16 µM
[24] = second compound 3.16 µM, first compound 10 µM
[25] = second compound 10 µM, first compound 0.0316 µM
[26] = second compound 10 µM, first compound 0.1 µM
[27] = second compound 10 µM, first compound 0.316 µM
[28] = second compound 10 µM, first compound 1 µM
[29] = second compound 10 µM, first compound 3.16 µM
[30] = second compound 10 µM, first compound 10 µM
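Note: spheroids exposed to agents for 7 days.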
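Throughout, for viability, T/C: 100% = DMSO vehicle control viability.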

COc1cc(Nc2ncc3c(n2)-c2ccc(Cl)cc2C(c2c(F)cccc2OC)=NC3)ccc1C(=O)O + CC1OCC2(CCN(c3cnc(Sc4ccnc(N)c4Cl)c(N)n3)CC2)C1N
IC50 (second compound 0.1 µM): 89.9 nM | IC50 (second compound 0.316 µM): < 31.6 nM | IC50 (second compound 1 µM): < 31.6 nM | IC50 (second compound 3.16 µM): < 31.6 nM | IC50 (second compound 10 µM): < 31.6 nM | viability, T/C [1]: 79.5% | viability, T/C [2]: 47.3% | viability, T/C [3]: 33.8% | viability, T/C [4]: 44.3% | viability, T/C [5]: 50.6% | viability, T/C [6]: 56.2% | viability, T/C [7]: 57.2% | viability, T/C [8]: 39.9% | viability, T/C [9]: 30.8% | viability, T/C [10]: 32.6% | viability, T/C [11]: 39.1% | viability, T/C [12]: 43.8% | viability, T/C [13]: 44.9% | viability, T/C [14]: 26.6% | viability, T/C [15]: 23.4% | viability, T/C [16]: 26.6% | viability, T/C [17]: 30.4% | viability, T/C [18]: 33.7% | viability, T/C [19]: 37.2% | viability, T/C [20]: 22.2% | viability, T/C [21]: 17.7% | viability, T/C [22]: 23% | viability, T/C [23]: 24.1% | viability, T/C [24]: 28.3% | viability, T/C [25]: 29.9% | viability, T/C [26]: 19.3% | viability, T/C [27]: 17.4% | viability, T/C [28]: 20.3% | viability, T/C [29]: 20.9% | viability, T/C [30]: 23.3%

Cn1nccc1Nc1nccc(-c2cc3c(s2)C(C)(C)N(CCN2CCOCC2)C3=O)n1 + C=CC(=O)N1CCN(c2nc(=O)n(-c3c(C)ccnc3C(C)C)c3nc(-c4c(O)cccc4F)c(F)cc23)C(C)C1
IC50 (second compound 0.1 µM): 67.8 nM | IC50 (second compound 0.316 µM): < 31.6 nM | IC50 (second compound 1 µM): < 31.6 nM | IC50 (second compound 3.16 µM): > 10000 nM | IC50 (second compound 10 µM): < 31.6 nM | viability, T/C [1]: 52% | viability, T/C [2]: 49.4% | viability, T/C [3]: 46.8% | viability, T/C [4]: 38.2% | viability, T/C [5]: 32.6% | viability, T/C [6]: 36% | viability, T/C [7]: 48.3% | viability, T/C [8]: 48% | viability, T/C [9]: 41.8% | viability, T/C [10]: 46.1% | viability, T/C [11]: 40% | viability, T/C [12]: 42.4% | viability, T/C [13]: 53.8% | viability, T/C [14]: 50% | viability, T/C [15]: 45.1% | viability, T/C [16]: 43.2% | viability, T/C [17]: 43.9% | viability, T/C [18]: 60.7% | viability, T/C [19]: 51.5% | viability, T/C [20]: 53% | viability, T/C [21]: 48% | viability, T/C [22]: 47.6% | viability, T/C [23]: 51.3% | viability, T/C [24]: 71.1% | viability, T/C [25]: 45.7% | viability, T/C [26]: 45.2% | viability, T/C [27]: 42.6% | viability, T/C [28]: 42.5% | viability, T/C [29]: 43.3% | viability, T/C [30]: 53.6%

CN(C)C/C=C/C(=O)Nc1cc2c(Nc3ccc(F)c(Cl)c3)ncnc2cc1O[C@H]1CCOC1 + COc1cc2nc(C)nc(NC(C)c3cc(N)cc(C(F)(F)F)c3)c2cc1OC1CCOC1
IC50 (second compound 0.1 µM): > 100 nM | IC50 (second compound 0.316 µM): > 100 nM | IC50 (second compound 1 µM): > 100 nM | IC50 (second compound 3.16 µM): 25 nM | IC50 (second compound 10 µM): 14.8 nM | viability, T/C (second compound 0.1 µM, first compound 0.000316 µM): 84.3% | viability, T/C (second compound 0.1 µM, first compound 0.001 µM): 65.2% | viability, T/C (second compound 0.1 µM, first compound 0.00316 µM): 65.8% | viability, T/C (second compound 0.1 µM, first compound 0.01 µM): 60.5% | viability, T/C [1]: 62.1% | viability, T/C [2]: 60.7% | viability, T/C (second compound 0.316 µM, first compound 0.000316 µM): 67.7% | viability, T/C (second compound 0.316 µM, first compound 0.001 µM): 65.6% | viability, T/C (second compound 0.316 µM, first compound 0.00316 µM): 53.6% | viability, T/C (second compound 0.316 µM, first compound 0.01 µM): 46.5% | viability, T/C [7]: 51.2% | viability, T/C [8]: 54.5% | viability, T/C (second compound 1 µM, first compound 0.000316 µM): 59.5% | viability, T/C (second compound 1 µM, first compound 0.001 µM): 94.3% | viability, T/C (second compound 1 µM, first compound 0.00316 µM): 74.7% | viability, T/C (second compound 1 µM, first compound 0.01 µM): 73% | viability, T/C [13]: 61.3% | viability, T/C [14]: 69.1% | viability, T/C (second compound 3.16 µM, first compound 0.000316 µM): 74.3% | viability, T/C (second compound 3.16 µM, first compound 0.001 µM): 71.7% | viability, T/C (second compound 3.16 µM, first compound 0.00316 µM): 59.5% | viability, T/C (second compound 3.16 µM, first compound 0.01 µM): 54.2% | viability, T/C [19]: 47.8% | viability, T/C [20]: 49.2% | viability, T/C (second compound 10 µM, first compound 0.000316 µM): 92.1% | viability, T/C (second compound 10 µM, first compound 0.001 µM): 75.8% | viability, T/C (second compound 10 µM, first compound 0.00316 µM): 59.3% | viability, T/C (second compound 10 µM, first compound 0.01 µM): 49.4% | viability, T/C [25]: 49.1% | viability, T/C [26]: 48.4%
